Values after ≈ are worked out from the molar mass of the structure shown. Active and inactive are the calls of the source. No cut-off for these calls is given here.
What was measured:
Cytochrome P450 3A4 [1] = target: T1, Cytochrome P450 3A4 (Homo sapiens, UniProt P08684); experiment: Inhibition of CYP3A4 in human liver microsomes using testosterone as substrate incubated for 30 mins by LC-MS/MS analysis; type: ADME
[2] = Chemical stability of the compound at pH 7.4 measured after 24 hrs; type: physicochemical; settings: buffer, read-out: Stability
hERG (KCNH2) [3] = target: T2, hERG (KCNH2) (Homo sapiens, UniProt Q12809); experiment: Inhibition of human ERG at 10 uM; type: toxicity
Salmonella typhimurium [4] = experiment: Mutagenicity in Salmonella typhimurium […] by ames test; type: toxicity, organism-based; settings: salmonella enterica subsp. enterica serovar typhimurium
[5] = Aqueous solubility of the compound at pH 7.4; type: physicochemical
[6] = Metabolic stability in CD1 mouse liver microsomes assessed as compound degradation in presence of NADPH measured after 20 mins; type: ADME, Microsome; settings: read-out: Drug degradation
[7] = Metabolic stability in human liver microsomes assessed as compound degradation in presence of NADPH measured after 20 mins; type: ADME, Microsome; settings: read-out: Drug degradation
[8] = Distribution coefficient, logD of compound at pH 7.4 by chromatographic analysis; type: physicochemical; settings: octanol/water
[9] = Permeability in human Caco2 cells at 20 uM incubated for 120 mins by ESI-MS/MS analysis; type: ADME, cell-based; settings: Caco-2, read-out: permeability
Femur [10] = experiment: Induction of chondrogenesis in femoral head cartilage isolated from C57BL/6 mouse model of osteoarthritis assessed as reduction in intensity of collagen type x staining incubated for 2 weeks in hypertrophic condition and twice for week medium is changed by immunohistochemical staining based analysis; type: functional, tissue-based
[11] = Effect on chondrocyte hypertrophic differentiation mouse ATDC-5 cells assessed as inhibition of […] gene expression incubated for 2 weeks followed by compound added and every 3 days medium is changed measured after 2 weeks by RT-qPCR analysis; type: functional, cell-based
CYP3A4 = CYP3A4 (Homo sapiens, UniProt P08684); experiment: Inhibition of CYP3A4 in human liver microsomes by measuring maximum efficacy; type: ADME
[12] = target: Ribosomal protein S6 kinase alpha-1 (Homo sapiens) (UniProt Q15418); experiment: Inhibition of RSK1 kinase (unknown origin) at 0.1 uM
Femur [13] = experiment: Induction of chondrogenesis in femoral head cartilage isolated from C57BL/6 mouse model of osteoarthritis assessed as reduction in intensity of collagen type x staining at 10 uM incubated for 2 weeks in hypertrophic condition and twice for week medium is changed by immunohistochemical staining based analysis; type: functional, tissue-based
hERG (KCNH2) [14] = target: T2, hERG (KCNH2); experiment: Inhibition of human ERG at 1 uM relative to control; type: toxicity
[15] = target: T3, Serine/threonine-protein kinase Sgk1 (Mus musculus, UniProt Q9WVC6); experiment: Inhibition of mouse SGK1 in presence 500 uM presence of ATP
T3 sequence (Q9WVC6 whole entry): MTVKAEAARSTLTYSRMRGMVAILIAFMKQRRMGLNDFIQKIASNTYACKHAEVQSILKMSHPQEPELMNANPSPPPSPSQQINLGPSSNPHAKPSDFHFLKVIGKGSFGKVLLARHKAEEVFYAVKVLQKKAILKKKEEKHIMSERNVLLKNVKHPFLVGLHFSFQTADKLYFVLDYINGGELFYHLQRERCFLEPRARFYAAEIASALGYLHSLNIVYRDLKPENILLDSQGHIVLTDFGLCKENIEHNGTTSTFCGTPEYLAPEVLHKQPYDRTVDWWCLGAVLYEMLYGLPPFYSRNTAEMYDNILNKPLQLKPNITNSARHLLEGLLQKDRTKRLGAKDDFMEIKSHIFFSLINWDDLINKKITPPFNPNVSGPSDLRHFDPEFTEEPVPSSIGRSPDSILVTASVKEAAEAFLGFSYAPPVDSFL

[16] = Metabolic stability in Sprague-Dawley rat liver microsomes assessed as compound degradation in presence of NADPH measured after 20 mins; type: ADME, Microsome; settings: read-out: Drug degradation
Salmonella typhimurium [17] = experiment: Mutagenicity in Salmonella typhimurium […] in presence of S9 fraction by ames test; type: toxicity, organism-based; settings: salmonella enterica subsp. enterica serovar typhimurium
Femur [18] = experiment: Induction of chondrogenesis in femoral head cartilage isolated from C57BL/6 mouse model of osteoarthritis assessed as reduction in intensity of collagen type x staining at 2 uM incubated for 2 weeks in hypertrophic condition and twice for week medium is changed by immunohistochemical staining based analysis; type: functional, tissue-based
Cytochrome P450 3A4 [19] = target: T1, Cytochrome P450 3A4; experiment: Inhibition of CYP3A4 in human liver microsomes using midazolam as substrate incubated for 10 mins by LC-MS/MS analysis; type: ADME
[20] = Inhibition of rat SGK1 in presence 500 uM presence of ATP
[21] = Cmax in Lewis rat plasma at 30 mg/kg, po measured after 8 hrs; type: ADME, organism-based; set-up: route oral, time 8 hrs, dose 30 mg/kg
[22] = Tmax in Lewis rat plasma at 30 mg/kg, po measured after 8 hrs; type: ADME, organism-based
[23] = AUC (0 to 24 hrs) in Lewis rat femoral head cartilage at 30 mg/kg, po measured after 8 hrs; type: ADME, organism-based, Femur; set-up: route oral, dose 30 mg/kg, time 8 hrs
[24] = Cmax in Sprague-Dawley rat plasma at 30 mg/kg, po; type: ADME, organism-based; set-up: route oral, dose 30 mg/kg
[25] = AUC (0 to 24 hrs) in Lewis rat plasma at 30 mg/kg, po measured after 8 hrs; type: ADME, organism-based; set-up: route oral, dose 30 mg/kg, time 8 hrs
[26] = target: T4, Serine/threonine-protein kinase Sgk1 (Homo sapiens, UniProt O00141); experiment: Inhibition of recombinant human SGK1 expressed in baculovirus expression system using 5-carboxyfluorescein -RPRAATF-NH2 as substrate preincubated for 30 mins followed by substrate addition in presence of 10 uM ATP and measured after 60 mins by microfluidics assay
T4 sequence (O00141 whole entry): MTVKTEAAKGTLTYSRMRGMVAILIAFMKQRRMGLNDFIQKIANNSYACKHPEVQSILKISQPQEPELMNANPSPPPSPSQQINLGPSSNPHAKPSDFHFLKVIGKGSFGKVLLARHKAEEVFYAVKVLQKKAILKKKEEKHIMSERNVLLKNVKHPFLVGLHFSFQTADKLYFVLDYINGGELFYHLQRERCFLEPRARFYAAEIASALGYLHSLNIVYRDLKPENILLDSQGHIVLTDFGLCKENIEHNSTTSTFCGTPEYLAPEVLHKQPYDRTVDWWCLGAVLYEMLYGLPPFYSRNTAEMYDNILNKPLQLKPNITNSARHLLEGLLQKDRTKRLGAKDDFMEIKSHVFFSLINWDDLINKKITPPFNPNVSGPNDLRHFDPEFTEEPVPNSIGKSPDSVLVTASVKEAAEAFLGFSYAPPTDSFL

[27] = Tmax in Sprague-Dawley rat plasma at 30 mg/kg, po; type: ADME, organism-based
[28] = target: T5, Serine/threonine-protein kinase Sgk3 (Homo sapiens, UniProt Q96BR1); experiment: Inhibition of human SGK3 in presence 500 uM presence of ATP
T5 sequence (Q96BR1 whole entry): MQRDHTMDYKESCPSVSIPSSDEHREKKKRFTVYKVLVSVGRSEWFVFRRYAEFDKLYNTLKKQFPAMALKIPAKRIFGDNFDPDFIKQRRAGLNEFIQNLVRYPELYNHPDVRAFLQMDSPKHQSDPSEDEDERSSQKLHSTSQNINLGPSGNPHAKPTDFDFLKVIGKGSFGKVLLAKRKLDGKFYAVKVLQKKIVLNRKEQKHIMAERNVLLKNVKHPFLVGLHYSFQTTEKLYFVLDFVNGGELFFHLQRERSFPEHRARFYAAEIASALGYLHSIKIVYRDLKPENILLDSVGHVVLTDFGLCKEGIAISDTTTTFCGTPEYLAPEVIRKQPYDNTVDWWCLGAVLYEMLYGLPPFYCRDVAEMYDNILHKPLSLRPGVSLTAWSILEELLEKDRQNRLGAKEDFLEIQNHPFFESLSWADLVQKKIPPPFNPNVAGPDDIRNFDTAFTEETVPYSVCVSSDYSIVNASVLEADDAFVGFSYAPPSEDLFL

[29] = target: T4, Serine/threonine-protein kinase Sgk1; experiment: Inhibition of recombinant human SGK1 expressed in baculovirus expression system using 5-carboxyfluorescein -RPRAATF-NH2 as substrate preincubated for 30 mins followed by substrate addition in presence of 500 uM ATP and measured after 60 mins by microfluidics assay
[30] = AUC (0 to 24 hrs) in Sprague-Dawley rat plasma at 30 mg/kg, po; type: ADME, organism-based; set-up: time < 24 hr, route oral, dose 30 mg/kg
[31] = Ratio of AUC(0 to 24 hrs) in femoral head to plasma in rat measured after 2 hrs; type: ADME, Bone/Plasma; settings: read-out: Selectivity ratio
[32] = target: T6, Serine/threonine-protein kinase Sgk2 (Homo sapiens, UniProt Q9HBY8); experiment: Inhibition of human SGK2 in presence 500 uM presence of ATP
T6 sequence (Q9HBY8 whole entry): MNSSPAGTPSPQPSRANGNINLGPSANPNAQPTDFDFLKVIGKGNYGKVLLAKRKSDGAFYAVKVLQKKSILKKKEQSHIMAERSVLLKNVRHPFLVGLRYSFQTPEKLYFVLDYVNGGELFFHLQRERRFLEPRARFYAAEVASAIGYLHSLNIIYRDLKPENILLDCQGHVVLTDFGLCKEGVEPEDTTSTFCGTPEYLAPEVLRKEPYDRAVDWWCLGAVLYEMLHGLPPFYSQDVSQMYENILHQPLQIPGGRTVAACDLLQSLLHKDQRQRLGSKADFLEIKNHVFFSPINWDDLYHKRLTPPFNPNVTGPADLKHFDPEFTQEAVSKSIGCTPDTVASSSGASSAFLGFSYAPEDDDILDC

[33] = Tmax in Lewis rat femoral head cartilage at 30 mg/kg, po measured after 8 hrs; type: ADME, organism-based, Femur
[34] = Cmax in Lewis rat femoral head cartilage at 30 mg/kg, po measured after 8 hrs; type: ADME, organism-based, Femur; set-up: route oral, time 8 hrs, dose 30 mg/kg
[35] = Half life in Sprague-Dawley rat plasma at 30 mg/kg, po; type: ADME, organism-based
[36] = Intrinsic clearance in human hepatocytes assessed per 10^-6 cells; type: ADME, cell-based, Hepatocyte

T1 sequence (P08684 whole entry): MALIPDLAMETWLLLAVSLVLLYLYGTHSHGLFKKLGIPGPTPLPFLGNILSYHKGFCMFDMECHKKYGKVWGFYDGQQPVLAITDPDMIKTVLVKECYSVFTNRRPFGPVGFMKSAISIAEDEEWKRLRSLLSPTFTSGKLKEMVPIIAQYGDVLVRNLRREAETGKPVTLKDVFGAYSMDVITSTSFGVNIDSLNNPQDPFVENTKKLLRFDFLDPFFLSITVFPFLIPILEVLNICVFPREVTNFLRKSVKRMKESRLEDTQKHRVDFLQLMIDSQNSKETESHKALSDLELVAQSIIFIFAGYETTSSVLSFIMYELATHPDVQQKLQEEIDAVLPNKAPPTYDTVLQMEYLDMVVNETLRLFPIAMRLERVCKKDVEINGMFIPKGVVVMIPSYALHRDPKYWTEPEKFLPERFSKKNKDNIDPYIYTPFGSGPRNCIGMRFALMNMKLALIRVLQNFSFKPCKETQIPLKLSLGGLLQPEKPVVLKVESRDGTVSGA
T2 sequence (Q12809 whole entry): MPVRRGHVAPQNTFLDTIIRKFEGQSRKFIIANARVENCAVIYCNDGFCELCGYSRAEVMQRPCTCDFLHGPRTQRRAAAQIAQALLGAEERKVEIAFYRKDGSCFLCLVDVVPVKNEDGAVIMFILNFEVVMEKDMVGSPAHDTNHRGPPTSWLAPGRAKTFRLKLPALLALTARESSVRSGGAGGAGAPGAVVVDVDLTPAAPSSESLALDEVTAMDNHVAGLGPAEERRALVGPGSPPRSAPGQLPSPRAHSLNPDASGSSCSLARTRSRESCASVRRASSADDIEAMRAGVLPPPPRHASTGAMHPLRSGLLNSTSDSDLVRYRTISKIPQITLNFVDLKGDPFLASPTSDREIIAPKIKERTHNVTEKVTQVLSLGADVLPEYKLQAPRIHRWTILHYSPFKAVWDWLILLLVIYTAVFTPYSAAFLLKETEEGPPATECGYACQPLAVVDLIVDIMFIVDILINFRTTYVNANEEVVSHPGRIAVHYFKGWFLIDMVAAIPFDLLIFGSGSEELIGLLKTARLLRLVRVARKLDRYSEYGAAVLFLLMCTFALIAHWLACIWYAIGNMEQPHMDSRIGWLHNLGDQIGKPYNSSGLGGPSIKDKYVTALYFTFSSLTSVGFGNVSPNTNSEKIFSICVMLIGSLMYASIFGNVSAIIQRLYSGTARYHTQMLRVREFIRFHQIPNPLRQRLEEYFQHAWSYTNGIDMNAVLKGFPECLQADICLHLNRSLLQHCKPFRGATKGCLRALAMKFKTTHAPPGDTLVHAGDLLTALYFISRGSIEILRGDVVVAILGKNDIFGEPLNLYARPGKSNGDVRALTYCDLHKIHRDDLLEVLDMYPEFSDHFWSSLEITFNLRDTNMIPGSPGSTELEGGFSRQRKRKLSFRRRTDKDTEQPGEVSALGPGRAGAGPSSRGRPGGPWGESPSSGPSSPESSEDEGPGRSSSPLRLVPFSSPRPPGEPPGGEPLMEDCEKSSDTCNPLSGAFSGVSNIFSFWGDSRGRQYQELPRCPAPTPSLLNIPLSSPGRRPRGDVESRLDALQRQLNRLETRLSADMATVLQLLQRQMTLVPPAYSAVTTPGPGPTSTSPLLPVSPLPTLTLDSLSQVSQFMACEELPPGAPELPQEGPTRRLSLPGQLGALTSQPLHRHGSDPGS
Chain of CYP3A4 (P08684 whole entry): as the sequence (P08684 whole entry) above
Chain of Ribosomal protein S6 kinase alpha-1 (Homo sapiens) (Q15418 whole entry): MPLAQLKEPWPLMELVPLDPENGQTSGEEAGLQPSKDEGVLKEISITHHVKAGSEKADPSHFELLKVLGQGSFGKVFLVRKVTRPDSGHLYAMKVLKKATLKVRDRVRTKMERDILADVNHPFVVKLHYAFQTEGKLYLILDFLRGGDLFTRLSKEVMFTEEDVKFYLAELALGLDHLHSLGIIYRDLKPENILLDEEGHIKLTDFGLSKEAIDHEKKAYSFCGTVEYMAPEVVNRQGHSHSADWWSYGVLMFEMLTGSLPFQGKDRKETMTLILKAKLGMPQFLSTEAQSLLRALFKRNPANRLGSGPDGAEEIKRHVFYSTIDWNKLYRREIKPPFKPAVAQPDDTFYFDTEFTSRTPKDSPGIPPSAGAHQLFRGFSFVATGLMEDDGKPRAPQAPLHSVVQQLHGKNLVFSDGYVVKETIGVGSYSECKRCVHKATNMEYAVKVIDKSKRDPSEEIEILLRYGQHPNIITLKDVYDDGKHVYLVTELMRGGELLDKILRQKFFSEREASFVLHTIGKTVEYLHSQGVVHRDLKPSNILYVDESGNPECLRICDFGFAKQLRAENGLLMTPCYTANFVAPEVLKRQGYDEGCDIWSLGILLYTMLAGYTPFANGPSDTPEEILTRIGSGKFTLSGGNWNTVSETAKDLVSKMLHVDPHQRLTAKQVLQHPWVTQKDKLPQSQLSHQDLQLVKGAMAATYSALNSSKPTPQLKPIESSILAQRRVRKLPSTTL

SMILES	IC50 (Cytochrome P450 3A4 [1]) [µM]	remaining at 24 h [2] [%]	inhibition at 10 µM (hERG (KCNH2) [3]) [%]	solubility [5] [µg/mL]	metabolised at 20 min [6] [%]	metabolised at 20 min [7] [%]	chromatographic logD [8]	Papp at 2 h, 20 µM [9] [×10⁻⁶ cm/s]	Activity (Femur [10])	IC50 [11] [nM]	Emax (CYP3A4) [%]	inhibition at 1 µM (hERG (KCNH2) [14]) [%]	IC50 [15] [nM]	metabolised at 20 min [16] [%]	Activity (Salmonella typhimurium [17])	IC50 (Cytochrome P450 3A4 [19]) [µM]	IC50 [20] [nM]	also measured
O=S(=O)(Nc1ccc(-c2nc(O[C@H]3CC[C@H](O)CC3)c3cn[nH]c3n2)cc1)c1cc(Cl)ccc1F	> 3	100	65	4 (≈ 7.72 µM)	6	13	2.8	8.6	Active	50	13	0	253	7	Non-Toxic	> 3	358	Activity (Salmonella typhimurium [4]): Non-Toxic; inhibition [12]: 57%; Activity (Femur [13]): Active; Activity (Femur [18]): inactive
N#Cc1ccc(Cl)cc1S(=O)(=O)Nc1ccc(-c2ncc3c(N)n[nH]c3n2)cc1	> 30	100	11	58 (≈ 136 µM)	3	3	1.13	1.5	Active	550	17	0	294	2	Non-Toxic	> 30	303	Cmax [21]: 2970 ng/mL; Tmax [22]: 4 h; AUC(0-t) at 8 h [23]: 5200 ng·h/mL; Cmax [24]: 10600 ng/mL; AUC(0-t) at 8 h [25]: 33000 ng·h/mL; IC50 [26]: 3 nM; Tmax [27]: 4 h; IC50 [28]: 211 nM; IC50 [29]: 9 nM; AUC(0-t) at 24 h [30]: 110 µg·h/mL; Kp at 2 h [31]: 0.047; IC50 [32]: 21 nM; Tmax [33]: 2 h; Cmax [34]: 890 ng/mL; half-life [35]: 168 min; CLH [36]: 0.005 mL/h
